Results reported in patent US20200121747A1, “COMPOSITION FOR PREVENTING OR TREATING ARTHRITIS COMPRISING HYDROQUINOIC ACID” (PUKYONG NATIONAL UNIVERSITY INDUSTRY-UNIVERSITY COOPERATION …, priority 2018, published 2020).

Assay: Body weight change in rheumatoid arthritis (CIA) mice
Type: in vivo, DBA/1J mice
Details: arthritis mice treated with 10 mg and 20 mg of SHQA; measured weekly for 7 weeks; FIG. 4
Procedure: Eight weeks old male DBA/1J mice (Central Lab Animal Inc., Seoul, Korea) were raised for 1 week in an environment maintaining temperature (25±2° C.), humidity (55%) and 12 hour light and dark cycle. All experiments were carried out in accordance with the guidelines of the Korean National Institutes of Health Guide for the Care and Use of Laboratory Animals, and the animal testing procedure was approved by the Animal Ethics Committee of Pukyong National University (2015-12). Rheumatoid arthritis was induced in male DBA/1J mice. Type II collagen was emulsified (CFA; 2 mg/mL) in the same volume of complete Freund's adjuvant. On day 0, 100 μg of […] was injected intradermally into the lower tail portion of the DBA/1J mice to immunize. After 21 days, 100 μg of CII (IFA; 2 mg/mL) emulsified in the same volume of incomplete Freund's adjuvant in the lower tail portion of the mice was boosted by intradermal injection. On day 42, all mice were anesthetized with ether and sacrificed. Blood (plasma sample), spleen, liver and joint tissues were immediately removed and stored at −80° C. […]
For the control group without treatment, the arthritis animal group (CIA treatment group), and the treated group in which arthritis experimental animals were treated with 10 mg and 20 mg of SHQA, their body weights were measured weekly for 7 weeks. […]

CC(C)=CCC/C(=C/CC/C(C)=C/CC/C(C)=C/Cc1cc(O)cc(C)c1O)C(=O)O [SHQA, sargahydroquinoic acid]
change in body weight: no significant change in body weight
